# Source: patent US10266823B2, “Small molecules that enhance the activity of oligonucleotides” (The University of North Carolina at Chapel Hill, priority 2014, dated 2019)
# Experiments:
# A375Luc705 cells = test: Luciferase induction by RGD-SSO-albumin conjugate; assay type: cell-based, human; settings: 2 h, 100 nM RGD-SSO-albumin conjugate
# Method: FIG. 2. Effects on Receptor-Targeted oligonucleotides. A375Luc705 cells were treated with 100 nM RGD-SSO-albumin conjugate for 16 h and subsequently treated with Retro-1 (100 uM) or 7938 (5, 10 uM) for 2 h. After removal of the compound the cells were incubated for a further 24 h and then assayed for luciferase and cell protein. (A) Control; (B) RGD-SSO conjugate only; (C) RGD-SSO conjugate plus Retrol; (D) RGD-SSO conjugate plus 5 uM 7938; (E) RGD-SSO conjugate plus 10 uM 7938. Means+/−SE. N=3.
# Our laboratory has pursued the use of ligand-oligonucleotide conjugates to attain receptor-selective targeted delivery (Alam, M. R., et al., Bioconjugate chemistry, 22, 1673-1681 (2011), Ming, X., et al., Biomaterials, 34, 7939-7949 (2013), Nakagawa, O., et al., Bioconjugate chemistry, 25, 165-170 (2014)). Thus we were interested in whether our compounds would affect oligonucleotides that enter cells by receptor-mediated endocytosis. We used a previously described (Ming, X., et al., Biomaterials, 34, 7939-7949 (2013)) multivalent conjugate comprised of several RGD peptide-conjugated morpholino SSOs further conjugated via bioreversible links to serum albumin as a carrier. […] We examined luciferase induction in αvβ3-expressing A375 melanoma cells that contain the Luc705 expression cassette. […] Thus 7938 can substantially enhance effects of receptor targeted oligonucleotide conjugates. […]
# HeLaLuc705 cells [1] = test: SSO623-mediated luciferase induction (splice correction), 24 well format; assay type: cell-based, human; settings: for enhancement of luciferase induction as compared to SSO alone: 2 h, 100 nM SSO623
# Method: FIG. 1B. SSO Dose-response of hit compounds. Selected hits were examined for their ability to enhance splice correction by SSO623 in the HeLa Luc 705 cell system. Cells were incubated in 24 well plates with 100 nM 623 or its mismatched control (MM) for 16 h in DMEM+10% FBS, rinsed, and then treated with various concentrations of the hit compounds, or with 100 uM Retro-1, for 2 h. The cells were then rinsed and incubation continued for an additional 4 h in DMEM+10% FBS. Cells were rinsed twice in PBS and luciferase activity (RLU) and cell protein determined. Means+/−SE. N=3. Mismatched controls were at baseline level on this scale and are not shown.
# (§1) Luciferase induction dose-response curves in a 24 well plate format with normalization on cell protein were performed as previously described (Alam, M. R. et al., Nucleic Acids Res, 36, 2764-2776 (2008), Ming, X., et al., Nucleic Acids Res, 38, 6567-6576 (2010)). Splicing modulation of the EGFP654 reporter and of endogenous Bcl-X were monitored by RT-PCR using appropriate primers. Evaluation of hit compound effects on antisense actions involved ‘knockdown’ of MDR1 pre-mRNA and its protein product in multi-drug resistant mouse 3T3 cells. Cell surface expression of P-glycoprotein was monitored using an Alexa-488 conjugated monoclonal antibody and flow cytometry as previously described (Ming, X. et al., Nucleic Acids Res, 41, 3673-3687 (2013), Fisher, M., et al., Nucleic Acids Res, 35, 1064-1074 (2007)). Evaluation of effects on siRNA utilized a HeLa cell line stably transfected with an EGFP expression cassette. Cholesterol-conjugated siRNAs were used to attain sufficient uptake. Cells were incubated with the siEGFP or control siRNA, rinsed, and then briefly exposed to hit compound. After further incubation expression of EGFP was monitored by flow cytometry. In cases where treatment with Lipofectamine 2000 was used as a positive control, the manufacturer's protocol was followed.
# EGFP654 mice = test: Acute toxicity, blood chemistry parameters in EGFP654 mice; assay type: in vivo, mouse; settings: 7.5 mg/kg i.v.; data not shown
# Excerpt: (§2) All animal procedures were in accordance with guidelines of the UNC Laboratory Animal Medicine Department and with federal guidelines. The EGFP654 transgenic mouse has been described previously (Sazani, P., et al., Nature biotechnology, 20, 1228-1233 (2002), Roberts, J., et al., Mol Ther, 14, 471-475 (2006)). A reporter gene comprised of the EGFP coding sequence is interrupted by an aberrantly spliced intron. Delivery of an appropriate SSO to the nucleus of tissue cells will correct splicing leading the expression of normal EGFP mRNA and protein. EGFP654 mice were administered 25 mg/kg SS0623 or mis-matched oligonucleotide in PBS by intra-peritoneal injection on two consecutive days. One day later the mice received 7.5 mg/kg UNC10217938A intravenously in a diluent of 5% PEG400, or diluent only. After 24 h the mice were euthanized and cardiac blood and tissues samples collected. Tissues for fluorescence microscopy to visualize EGFP were fixed in cold 1.5% paraformaldehyde in PBS and then processed for cryosectioning (Sazani, P., et al., Nature biotechnology, 20, 1228-1233 (2002)). Tissues for RNA analysis were collected from mice euthanized at 4 h and ere quick frozen on dry ice. All procedures involving live animals were conducted by the UNC Animal Studies Core facility. Blood samples were analyzed by the UNC Animal Clinical Chemistry Core facility.
# [2] = test system: P-glycoprotein multidrug transporter in multi-drug resistant 3T3 cells; test: Antisense knockdown of P-glycoprotein (anti-MDR1 ASO), flow cytometry; assay type: cell-based, mouse
# Method: as §1, with “followed. […]” for “followed.”
# EGFP654 transgenic mouse = test: In vivo splice correction in EGFP654 transgenic mouse
# Excerpt: FIG. 4. In vivo effects: Quantitation of RT-PCR. Gel bands were quantitated using a Typhoon imaging system. Percent of switching is the ratio of lower band to upper band ×100. *** difference from PBS control significant at the 0.001 level.
# as §2
# In the EGFP654 transgenic line a reporter gene comprised of the EGFP coding sequence is interrupted by an aberrantly spliced intron. Effective delivery of an appropriate SSO to the nucleus of tissue cells will correct splicing leading to expression of normal EGFP mRNA and protein in that tissue. We visualized EGFP expression by fluorescence microscopy of tissue cryosections and evaluated correction of EGFP pre-mRNA splicing by RT-PCR. […]
# HeLa cells = test: Live cell confocal microscopy: subcellular distribution of TAMRA oligonucleotide and organelle markers; assay type: cell-based, human
# Method: FIG. 3A: Effects on Cell Morphology and Subcellular Distribution of Oligonucleotide: Quantitation of Colocalization. HeLa cells were transfected with baculovirus expression vectors for GFP-Rab7a (late endosome marker) or GFP-LAMP-1 (lysosome marker). The cells were then incubated with 300 nM SSO 623-TAMRA for 16 h. Cells were then treated with 10 uM 7938 for 1 h or maintained as controls. Live cells were imaged using a confocal microscope with environmental stage. Co-localization of GFP and TAMRA oligonucleotide was quantitated using the Image J Coloc2 plug-in and expressed as the Manders correlation coefficient. Individual cells were analyzed and the data summated. Means and standard errors shown. N=9-20. ** represents p<0.002 compared to Rab 7 control.
# FIG. 3B. Effects on Cell Morphology and Subcellular Distribution of Oligonucleotide: Nuclear Accumulation. TAMRA fluorescence intensity in the nucleus was quantitated using Image J. Means and standard errors shown. N=55-70. *** represents p<0.001 compared to Control.
# Quantitative live cell confocal microscopy (Dunn, K. W., et al., Am J Physiol Cell Physiol, 300, C723-742 (2011)) was performed to examine the subcellular distribution of fluorescent oligonucleotide or of certain markers for endomembrane compartments. Cells (HeLa) were transfected with baculovirus expression vectors for GFP chimeras of marker proteins for several endomembrane compartments. The day following transfection, cells were incubated for 4 h with 300 nM TAMRA conjugated SSO 623 in OptiMEM after which the cells were washed and incubated in DMEM medium with 1% FBS. In some cases hit compounds were added during or after the incubation. Cells were imaged on an Olympus FV1000 MPE laser scanning confocal microscope with environmental chamber to maintain 37 C, 40% humidity and 5% C02. We used 488 nm (GFP) and 559 nm (TAMRA) as laser lines, and images were collected with a 60× oil immersion lens. Quantitation of co-localization of oligonucleotide and marker proteins utilized the Coloc2 plug-in in Image J. In some cases GFP markers for organelles were examined in cells previously fixed in 4% formaldehyde in PBS.
# [3] = test system: HeLa cell line stably transfected with an EGFP expression cassette; test: Cholesterol-conjugated siEGFP reduction of EGFP, flow cytometry; assay type: cell-based, human; settings: cholesterol-conjugated siRNA
# Method: as §1
# HeLaLuc705 cells [4] = test: High throughput screen, SSO623 luciferase induction, 384 well; assay type: cell-based, human; settings: library compounds at 25 uM, 5 h; 100 nM SSO623
# Method: Our high throughput screen (HTS) utilized HeLaLuc705 cells. Delivery of an appropriate SSO to the nucleus corrects splicing and induces luciferase expression thus providing an easily interpreted positive readout (Iam, M. R. et al., Nucleic Acids Res, 36, 2764-2776 (2008), Ming, X., et al., Nucleic Acids Res, 38, 6567-6576 (2010)). Cells were trypsinized, rinsed, and suspended in Opti-MEM at 300,000 cells/ml; SSO623 was added to a final concentration of 100 nM. No lipid or polymer transfection agents were used in these assays. Opti-MEM (15 ul) followed by cell suspension (20 ul) was added to wells of 384 well plates. Cells were allowed to attach and incubate with the SSO for 16 h. During this 16 h period a set of positive control wells received chloroquine to a final concentration of 300 uM while a set of negative control wells received diluent. After the initial incubation the remaining wells received library compounds to a final concentration of 25 uM. Incubation with library compounds was at 37 C for 5 h at which time the cells were harvested and analyzed for luciferase induction. Library compounds that produced an induction of 50% that of the positive controls were considered positive in this assay and were further analyzed. Dose-response curves were developed comparing SSO623 with a mis-matched oligonucleotide. […]
# C57BL/6 mice = test: 7 day toxicity study; assay type: in vivo; settings: doses that overlap those of FIG. 4, data not shown
# [5] = 10 uM, 1 h, Manders correlation coefficient
SMILES,ability of the conjugate to induce luciferase (A375Luc705 cells; 100 uM compound),enhancement of luciferase induction as compared to SSO alone (HeLaLuc705 cells [1]; 100 uM compound),"ability of the conjugate to induce luciferase (A375Luc705 cells; 5 or 10 uM compound, compared with 100 uM Retro-1)",enhancement of luciferase induction as compared to SSO alone (HeLaLuc705 cells [1]; 10 uM compound),enhancement of luciferase induction as compared to SSO alone (HeLaLuc705 cells [1]; 20 uM compound),"amount of SSO at which strong induction effects were observed (HeLaLuc705 cells [1]; SSO varied, constant concentration of compound)",acute toxicity (blood chemistry parameters) (EGFP654 mice),"amount of ASO at which strong effects were observed ([2]; ASO varied, constant concentration of compound)","enhancement of ASO action (P-glycoprotein knockdown) ([2]; anti-MDR1 ASO, data not shown)","EGFP fluorescence in liver, kidney and heart (EGFP654 transgenic mouse; SS0623 25 mg/kg i.p. on two days, then 7.5 mg/kg compound i.v., 24 h)","correction of EGFP pre-mRNA splicing by RT-PCR in liver, kidney and heart (EGFP654 transgenic mouse; SS0623 followed by compound, RNA at 4 h)","EGFP induction in skeletal muscle (EGFP654 transgenic mouse; SS0623 followed by compound, data not shown)",co-localization of TAMRA-oligonucleotide with late endosome marker Rab7 (HeLa cells; [5]),co-localization of TAMRA-oligonucleotide with lysosomal marker LAMP-1 (HeLa cells; [5]),accumulation of Tamra-oligonucleotide in the nucleus (HeLa cells; TAMRA fluorescence intensity in the nucleus),"release of fluorescent dextran from endosomes (HeLa cells; dextran of molecular mass similar to an oligonucleotide, data not shown)",ability of siEGFP to reduce levels of EGFP [3],activity in high throughput screen (HeLaLuc705 cells [4]),toxicity (C57BL/6 mice)
"CCC(=O)N1CC(=O)Nc2ccc(Br)cc2C1c1ccccc1 (stereo not shown) [Retro-1, reference compound]",increased,11 fold,,,,,,,,,,,,,,,,,
CCOC(=O)Nc1cc(NCCN(C)C)c2nc(-c3ccccc3)c(-c3ccccc3)nc2n1 [compound 7938],,,far larger impact,60 fold,220 fold,3 nM,did not result in acute toxicity,5 nM,strongly enhanced,distinct increases,correctly spliced EGFP message was found,not strongly affected,major reduction,little effect,increase,partially released,enhanced,active,no significant evidence of toxicity
